Three molecules from patent publication US7994192B2, “Substituted thienopyridone compounds with antibacterial activity” (Crestone, Inc., priority 2006, dated 2011) can be followed below.

SMILES strings stand for the structures.

The subject of assay [1] is C. difficile. The experiment in a line: Sporulation of C. difficile clinical isolates on agar containing compound. It counts as cell-based.
For assay [2], the system named is C. difficile. The experiment in a line: C. difficile-infected hamster survival study. It counts as in vivo. How it is done: Animal studies were performed to determine the efficacy of MetRS inhibitors for treating C. difficile-infections. The MetRS inhibitors tested were 5-[3-((R)-6,8-Dibromo-chroman-4-ylamino)-propylamino]-4H-thieno[3,2-b]pyridine-7-one (both racemic mixture and the R enantiomer) and 5-[3-((R)-8-Bromo-6-chloro-chroman-4-ylamino)-propylamino]-4H-thieno[3,2-b]pyridin-7-one. Also tested was 2-(3-{3,5-Dibromo-2-[2-(4-methyl-thiazol-5-yl)-ethoxy]-benzylamino}-propylamino)-1H-quinolin-4-one.
Results were compared to C. difficile-infected hamsters treated with the conventional antibiotic, vancomycin. Infected hamsters were treated with either a solution or suspension of a MetRS inhibitor at 5 to 50 mg/kg or vancomycin at 2.5, 5 or 25 mg/kg. There were eight hamsters per group with the final endpoint of the experiment being survival. Expired hamsters were examined for GI condition.

Turning to `O=c1cc(NCCCN[C@@H]2CCOc3c(Br)cc(Br)cc32)[nH]c2ccsc12` [5-[3-((R)-6,8-Dibromo-chroman-4-ylamino)-propylamino]-4H-thieno[3,2-b]pyridine-7-one], the “spores (share of total cells)” value was less than 2% in the assay on C. difficile [1] (0.25×MIC, 96 hours, all strains) and less than 1% in the assay on C. difficile [1] (0.5×MIC, 96 hours, all strains). Further, the “survival on Day 28” value in the assay with C. difficile [2] (5 mg/kg BID) is reported as greater than 60%. Besides, the “efficacy ranking among the MetRS inhibitors tested” value with C. difficile [2] (hamster, in vivo) was “best efficacy”.
On to `Cc1ncc([N+](=O)[O-])n1CCO` [metronidazole, reference compound], for which, in the assay on C. difficile [1] (subMIC concentrations, all tested strains), the “spores (share of total cells)” value is given as “up to 100%”.
In the case of `CN[C@H](CC(C)C)C(=O)N[C@H]1C(=O)N[C@@H](CC(N)=O)C(=O)N[C@H]2C(=O)N[C@H]3C(=O)N[C@H](C(=O)N[C@H](C(=O)O)c4cc(O)cc(O)c4-c4cc3ccc4O)[C@H](O)c3ccc(c(Cl)c3)Oc3cc2cc(c3O[C@@H]2O[C@H](CO)[C@@H](O)[C@H](O)[C@H]2O[C@H]2C[C@](C)(N)[C@H](O)[C@H](C)O2)Oc2ccc(cc2Cl)[C@H]1O` [vancomycin, reference compound], the “survival on Day 28” value with C. difficile [2] (vancomycin treatment, dose not given in the sentence (2.5, 5 or 25 mg/kg used)) was 0-10%.
